# Measured values from US4892947A, “3(2H)Pyridazinone, process for its preparation and anti-allergic agent containing it” (Nissan Chemical Industries Ltd., priority 1985, dated 1990).
# Where a name gives a salt, the structure may show the parent alone.
# System: LTD4
# Experiment: LTD4 antagonism in isolated guinea-pig trachea with indomethacin (method (ii))
# Assay type: cell-based
# Conditions: Cavia porcellus, 0.5 h, 10^-6 g/ml test compound, 30 min prior to LTD4
# Protocol: (ii) LTD4 antagonism in guinea-pig trachea
# Antagonism for LTD4 was determined in isolated guinea-pig trachea prepared as spiral strip. Tracheal preparations were suspended under 1 g tension in 10 ml organ baths containing […] of indomethacin and they were incubated for 1 hr prior to use. Contractile responses to LTD4 (2×10^-8 g/ml) were obtained after the maximal respone to hitamine (10^-4 M). Test compounds dissolved in 100% dimethyl sulfoxide were added to the organ baths (final concentration of 10^-6 g/ml) 30 min prior to LTD4 addition, and then contractile responses to LTD4 were compared with those of control which was obtained from a paired trachea in the absence of test compounds. LTD4 -induced contractions were expressed as a percentage of the maximal response to histamine. The antagonism was determined as follows:
# (§1) Antagonism (%)=(1.0-% contraction in test/% contraction in control)×100
row,Structure (SMILES),inhibition at 1 µg/mL [%]
1,Cc1ccc(CNc2cn[nH]c(=O)c2Br)c(C)c1 [compound 53],37
2,C=CCn1ncc(NCc2ccc(OC)c(OCCC)c2)c(Cl)c1=O [compound 47],31
3,COc1ccc(CNc2cnn(-c3ccccc3)c(=O)c2Cl)cc1 [compound 44],20
4,COc1ccc(CNc2cn[nH]c(=O)c2Cl)cc1OCc1ccccc1 [compound 54],44
5,CCCCCCOc1cc(CNc2cn[nH]c(=O)c2Br)ccc1OC [Compound No. 41],87
6,CCOc1cc(CNc2cnn(C3CCCC3)c(=O)c2Cl)ccc1OC [compound 46],38
7,CCCCCCCOc1cc(CNc2cn[nH]c(=O)c2Cl)ccc1OC [compound 42],96
8,C=CCn1ncc(NCc2ccc(OC)c(OCC)c2)c(Cl)c1=O [compound 48],28
9,CCOc1cccc(CNc2cnn(Cc3ccccc3)c(=O)c2Cl)c1 [compound 50],30
10,CCCCCCOc1cc(CNc2cn[nH]c(=O)c2Cl)ccc1OC [compound 40],99
11,CCOc1cc(CNc2cnn(-c3ccccc3)c(=O)c2Cl)ccc1OC [compound 49],42
12,COc1ccc(CNc2cnn(Cc3ccccc3)c(=O)c2Cl)cc1 [compound 45],23
13,Cc1ccc(CNc2cn[nH]c(=O)c2Cl)c(C)c1 [compound 52],22
14,CCCCCCCOc1cc(CNc2cn[nH]c(=O)c2Br)ccc1OC [compound 43],78

# System: ddY strain male mice
# Experiment: Acute toxicity test, intraperitoneal (Test method-(1))
# Assay type: in vivo
# Conditions: i.p. 200 mg/kg, 7 days
# Protocol: The lethal ratio was determined in ddY strain male mice (4 weeks old) at 7 days after the intraperitoneal injection of test compounds.
row,Structure (SMILES),Lethal ratio (Death number/Experimental number)
1,CCCOc1cc(CNc2cnn(C)c(=O)c2Cl)ccc1OC [Compound No. 12],0/2

# Same assay, conditions: i.p. 400 mg/kg, 7 days
row,Structure (SMILES),Lethal ratio (Death number/Experimental number)
1,CCCOc1cc(CNc2cnn(C)c(=O)c2Cl)ccc1OC [Compound No. 12],0/1

# System: antigen-induced anaphylactic bronchoconstriction in passively sensitized guinea-pig
# Experiment: Anaphylactic bronchoconstriction in passively sensitized guinea-pig, p.o. test
# Assay type: in vivo
# Conditions: p.o. 50 mg/kg, 2 hours prior to EA challenge (0.2 mg/kg)
# Protocol: (§2) (iii) Effect on anaphylactic bronchoconstriction in passively sensitized guinea-pig
# (§3) Male guinea-pigs (350-450 g) were passively sensitized with intravenous (i.v.) injection of 0.125 ml rabbit anti-EA (egg albumin) serum (Cappel Laboratories) 1 to 2 days preceding the experiment. Antigen-induced anaphylactic bronchoconstrictions were measured by modified method of Konzett and Rossler (Arch. Exp. Path. Pharmak., 195, 71, 1940). Sensitized guinea-pigs were anaesthetized with intraperitoneal injection of urethane (1.5 g/kg). The right jugular vein was cannulated for the administration of the all agents and trachea was cannulated to record total pulmonary resistance. Guinea-pigs were artificially ventilated by a small animal respirator (Shinano, Model SN-480-7) set at a stroke volume of 4.5 ml and a rate of 50 breaths per min. The change in pulmonary resistance was measured with a pressure transducer (Nihon Kohden, Model TP-602T) connected to a T-tube on the tracheal cannula. The increase in air overflow volume was expresssed as a percentage of the maximum bronchoconstriction obtained by clamping off the trachea. Following surgical preparation, the animals were pretreated with indomethacin (0.2 mg/kg, 10 min), pyrilamine (2 mg/kg, 6 min) and propanolol (0.1 mg/kg, 5 min) prior to the EA challenge (0.1 or 10 mg/kg). All test compounds were administered intraveneously or orally before the EA challenge. Inhibition (%) of bronchoconstriction was determined as follows: Inhibition (%)=(1.0%-maximum bronchoconstriction in test/% maximum bronchoconstriction in control)×100. The maximum bronchoconstriction was btained within 30 min after the EA challenge. The number of test animals was 4 in the i.v. test and 6 in the p.o. test.
# (b) The p.o. test: A test compound was suspended in 5% gum arabic and orally administered 2 hours prior to the EA challenge (0.2 mg/kg). The reaction of the control was 62±6%.
row,Structure (SMILES),Inhibition (%) of bronchoconstriction [%]
1,CCCOc1cc(CNc2cn[nH]c(=O)c2Br)ccc1OC [compound 30],65
2,CCOc1cc(CNc2cn[nH]c(=O)c2Br)ccc1OC [compound 36],68

# System: LTD4
# Experiment: LTD4 antagonism in isolated guinea-pig trachea (method (i))
# Assay type: cell-based
# Conditions: 10^-5 g/ml test compound, 5 min prior to LTD4 (2×10^-8 g/ml), hydrochloride
# Protocol: (i) LTC4 and LTD4 antagonisms in guinea-pig trachea
# Antagonisms for LTC4 and LTD4 were determined in isolated guinea-pig trachea prepared as spiral strip. Tracheal preparations were suspended under 1 g tension in 10 ml organ baths and they were incubated for 1 hr prior to use. Contractile responses to LTC4 (2×10^-8 g/ml) and LTD4 (2×10^-8 g/ml) were obtained after the maximal response to histamine (10^-4 M). Test compounds dissolved in 100% dimethyl sulfoxide were added to the organ baths (final concentration of 10^-5 g/ml or 10^-6 g/ml) 5 min prior to LTC4 and LTD4 addition, and then contractile responses to LTC4 and LTD4 were compared with those of control which was obtained from a paired trachea in the absence of test compounds. LTC4 - and LTD4 -induced contractions were expressed as a percentage of the maximal response to histamine. The antagonism was determined as follows:
# as §1
row,Structure (SMILES),LTD4 antagonism (%)
1,"COc1ccc(CNc2cnn(CCN(C)C)c(=O)c2Cl)cc1OC [Compound No. 9, 4-Chloro-5-(3,4-dimethoxybenzylamino)-2-(2-N,N-dimethylaminoethyl)-3(2H)pyridazinone hydrochloride]",26

# Same assay, conditions: Cavia porcellus, 5 min, 10^-5 g/ml test compound, 5 min prior to LTD4 (2×10^-8 g/ml)
row,Structure (SMILES),inhibition at 10 µg/mL [%]
1,COc1cc(CNc2cnn(CCCO)c(=O)c2Cl)cc(OC)c1OC [compound 20],19
2,CCCOc1cc(CNc2cn[nH]c(=O)c2Br)ccc1OC [compound 30],100
3,CCCOc1cc(CNc2cnn(C)c(=O)c2Cl)ccc1OC [Compound No. 12],73
4,CCCCOC(=O)c1ccc(CNc2cnn(C)c(=O)c2Cl)cc1 [compound 24],43
5,Cn1ncc(NCc2ccc(C(=O)O)cc2)c(Cl)c1=O [compound 27],20
6,CN(C)c1ccc(CNc2cn[nH]c(=O)c2Cl)cc1 [compound 25],63
7,C=CCn1ncc(NCc2ccc(Cl)cc2)c(Cl)c1=O [Compound No. 2],93
8,CCCCCOc1cc(CNc2cnn(CCCO)c(=O)c2Cl)ccc1OC [compound 15],51
9,"COc1ccc(CNc2cnn(CCN(C)C)c(=O)c2Cl)cc1OC [Compound No. 8, 4-Chloro-5-(3,4-dimethoxybenzylamino)-2-(2-N,N-dimethylaminoethyl)-3(2H)pyridazinone]",36
10,COc1ccc(CNc2cnn(CC(F)(F)F)c(=O)c2Cl)cc1OC [compound 11],47
11,CCN(CC)c1ccc(CNc2cnn(C)c(=O)c2Cl)cc1 [compound 26],46
12,CCCCCOc1cc(CNc2cnn(CC(=O)O)c(=O)c2Cl)ccc1OC [compound 17],20
13,CCCCC/C=C\c1ccc(CNc2cnn(CC(=O)O)c(=O)c2Cl)cc1 [compound 23],31
14,COc1cc(CNc2cnn(C)c(=O)c2Cl)cc(OC)c1OC [compound 19],22
15,CCCOc1cccc(CNc2cn[nH]c(=O)c2Br)c1 [compound 29],61
16,COc1ccc(CNc2cn[nH]c(=O)c2Cl)cc1 [compound 28],67
17,C=CCn1ncc(NCc2ccc(OC)c(OC)c2)c(Cl)c1=O [compound 6],53
18,COc1ccc(CNc2cnn(CCN(C)C)c(=O)c2Cl)cc1O [compound 21],20
19,CCCCCOc1cc(CNc2cnn(CCC(=O)O)c(=O)c2Cl)ccc1OC [compound 18],18
20,Cn1ncc(NCc2cccc(OCc3ccccc3)c2)c(Cl)c1=O [compound 7],53
21,CCCOc1cccc(CNc2cnn(C)c(=O)c2Cl)c1 [compound 5],71
22,CCCOc1cccc(CNc2cn[nH]c(=O)c2Cl)c1 [compound 31],51
23,C=CCn1ncc(NCc2ccc(SC)cc2)c(Cl)c1=O [compound 22],72
24,CCOc1cccc(CNc2cnn(C)c(=O)c2Cl)c1 [Compound No. 4],49
25,CC(C)c1ccc(CNc2cnn(C)c(=O)c2Cl)cc1 [Compound No. 1],49
26,"CCCCCOc1cc(CNc2cnn(CCC(=O)OC(C)(C)C)c(=O)c2Cl)ccc1OC [Compound No. 16, 4-Chloro-5-(3-n-pentyloxy-4-methoxybenzylamino)-2-{2-(t-butyloxycarbonyl)ethyl}-3(2H)pyridazinone]",24
27,CCCCCOc1cc(CNc2cnn(CCO)c(=O)c2Cl)ccc1OC [compound 14],35

# Same assay, conditions: Cavia porcellus, 5 min, 10^-6 g/ml test compound, Test method (i) (asterisk in Table 4), 5 min prior to LTD4
row,Structure (SMILES),inhibition at 1 µg/mL [%]
1,CCCCCOc1cc(CNc2cn[nH]c(=O)c2Cl)ccc1OC [Compound No. 37],87
2,CCCOc1cc(CNc2cn[nH]c(=O)c2Br)ccc1OC [compound 30],78
3,CCOc1cc(CNc2cn[nH]c(=O)c2Cl)ccc1OC [compound 35],42
4,"CCCCCOc1cc(CNc2cn[nH]c(=O)c2Br)ccc1OC [Compound No. 39, 4-Bromo-5-(3-n-pentyloxy-4-methoxybenzylamino)-3(2H)-pyridazinone]",87
5,CCOc1cc(CNc2cn[nH]c(=O)c2Br)ccc1OC [compound 36],70
6,CCCCOc1cc(CNc2cn[nH]c(=O)c2Cl)ccc1OC [compound 34],49

# System: antigen-induced anaphylactic bronchoconstriction in passively sensitized guinea-pig
# Experiment: Anaphylactic bronchoconstriction in passively sensitized guinea-pig, i.v. test
# Assay type: in vivo
# Conditions: i.v. 2 mg/kg, 1 min prior to EA challenge (10 mg/kg)
# Protocol: as §2
# as §3, with “Antigen-induced anaphylactic bronchoconstrictions were measured by modified method of Konzett and Rossler (Arch. Exp. Path. Pharmak., 195, 71, 1940).” left out, “The change in pulmonary resistance was measured with a pressure transducer (Nihon Kohden, Model TP-602T) connected to a T-tube on the tracheal cannula.” left out, “The maximum bronchoconstriction was btained within 30 min after the EA challenge.” left out
# (a) The i.v. test: A test compound (2 mg/kg) was suspended or dissolved in 3% Tween 80 and intraveneously administered 1 min prior to the EA challlenge (10 mg/kg).
row,Structure (SMILES),Inhibition (%) of bronchoconstriction [%]
1,CCCOc1cc(CNc2cnn(C)c(=O)c2Cl)ccc1OC [Compound No. 12],31
2,CN(C)c1ccc(CNc2cn[nH]c(=O)c2Cl)cc1 [compound 25],27
